The source made the active and inactive calls. The calls are words filed in the database; no cut-off is given here.
System: Cortical neurone
Assay: Induction of neurite outgrowth in rat cortical neurons at 10 uM after 4 days

SMILES | Activity
C[C@@H]1[C@H]2C[C@]3(CC(=O)O2)C(=CC(=O)[C@@H]3C)[C@]1(C)CO (relative stereo) | inactive
C[C@@H]1C[C@H](O)[C@@]2(O)[C@]13CC(=O)OC[C@@]2(C)[C@H](C)C(=O)C3 | inactive
C[C@@H]1[C@H](O)[C@H](O)[C@@]2(O)[C@]13CC(=O)OC[C@@]2(C)[C@H](C)C(=O)C3 | inactive
C[C@@H]1CC(=O)[C@@]2(O)[C@]13CC(=O)OC[C@@]2(C)[C@@](C)(O)C(=O)C3 | inactive
C[C@@H]1[C@H](O)C[C@]23OC(=O)C[C@]12C[C@]1(O)OC[C@]3(C)[C@@H]1C | inactive
C[C@@H]1C[C@H](O)[C@@]2(O)[C@]13CC(=O)OC[C@@]2(C)[C@@](C)(O)C(=O)C3 | inactive
CO[C@@]12C[C@]34CC(=O)O[C@]3(C[C@@H](O)[C@H]4C)[C@](C)(CO1)[C@@H]2C | inactive
C[C@@H]1C(=O)C[C@]23CC(=O)OC[C@]1(C)[C@@]2(O)[C@@H](O)C[C@]3(C)O | inactive
C[C@@H]1C[C@H](O)[C@@]23O[C@@]4(O)C[C@@]12CC(=O)OC[C@@]3(C)[C@H]4C (relative stereo) | inactive
C[C@@H]1C[C@H](O)[C@@]2(O)[C@]13CC(=O)O[C@H](C3)[C@@H](C)[C@@]2(C)CO | inactive
C[C@]12COC(=O)C[C@@]3(CC(=O)[C@]1(C)O)[C@]2(O)[C@@H](O)C[C@]3(C)O | inactive
C[C@]12COC(=O)C[C@@]3(CC(=O)[C@]1(C)O)[C@]2(O)CC[C@]3(C)O | inactive
C[C@@H]1C(=O)C=C2[C@]13CC(=O)O[C@H](C3)[C@@H](C)[C@@]2(C)CO (relative stereo) | inactive
